In ChEMBL document CHEMBL5728324, “Inhibitors of Hepatitis C virus polymerase” (2021):

Test: HCV Replicon Assay and EC50 Determination: HCV replicon assay is based on the luciferase reporter cell line (Huh-luc/neo-ET). This reporter cell line is a human liver carcinoma cell line (Huh-7) stably transfected with an autonomously replicating bicistronic HCV subgenomic RNA replicon (Lohmann et al., 1999, Science, 285, 110-113). Inhibition of HCV RNA replication was monitored through analysis of reporter luciferase activity. Briefly, HCV replicon cells were incubated with inhibitors for 72 hours at 37° C. After the incubation, duplicate plates were treated and incubated in parallel for assessment of cellular toxicity by XTT staining and anti-HCV activity by measurement of luciferase reporter activity. Either human interferon alpha 2B or ribavirin was used as a reference compound. EC50 values were determined using GraFit (Erithaus software) or Excel.

First: CNC(=O)c1c(-c2ccc(F)cc2)oc2cc(N(CCOCCOCCOCC(=O)O)S(C)(=O)=O)c(C3CC3)cc12
Second: CNC(=O)c1c(-c2ccc(F)cc2)oc2cc(N(CCOCCOCCOCC(=O)NO)S(C)(=O)=O)c(C3CC3)cc12
The EC50 of the first is higher: 100 to 1000 nM for the first, under 100 nM for the second. The second is the more potent here.

First: CNC(=O)c1c(-c2ccc(F)cc2)oc2cc(N(CCOCCOCc3ccc(OC)c(C(=O)O)c3)S(C)(=O)=O)c(C3CC3)cc12
Second: CNC(=O)c1c(-c2ccc(F)cc2)oc2cc(N(CCOCCOCc3ccc(F)c(C(=O)O)c3)S(C)(=O)=O)c(C3CC3)cc12
The EC50 of the first is higher: 100 to 1000 nM for the first, under 100 nM for the second.

CNC(=O)c1c(-c2ccc(F)cc2)oc2cc(N(CC(=O)NCC(=O)NCc3cccc(C(=O)/C=C(\O)C(=O)O)c3)S(C)(=O)=O)c(C3CC3)cc12 and CNC(=O)c1c(-c2ccc(F)cc2)oc2cc(N(CC(=O)NC(C)C(=O)NCc3cccc(C(=O)/C=C(\O)C(=O)O)c3)S(C)(=O)=O)c(C3CC3)cc12 (centres undefined) fall in the same range of EC50: 100 to 1000 nM for the first, 100 to 1000 nM for the second.

First: CNC(=O)c1c(-c2ccc(F)cc2)oc2cc(N(CCOCCOCCOC(C(=O)O)c3ccccc3)S(C)(=O)=O)c(C3CC3)cc12 (centres undefined)
Second: CNC(=O)c1c(-c2ccc(F)cc2)oc2cc(N(CCOCCOCCOC(C)C(=O)O)S(C)(=O)=O)c(C3CC3)cc12 (centres undefined)
The EC50 of the first is higher: 100 to 1000 nM for the first, under 100 nM for the second.

CNC(=O)c1c(-c2ccc(F)cc2)oc2cc(N(CCOCCOCc3cccc(C(C)=O)c3)S(C)(=O)=O)c(C3CC3)cc12 and CNC(=O)c1c(-c2ccc(F)cc2)oc2cc(N(CCOCCOCc3cccc(C(=O)O)c3)S(C)(=O)=O)c(C3CC3)cc12 cannot be ordered by EC50: under 100 nM for the first, under 100 nM for the second.

CNC(=O)c1c(-c2ccc(F)cc2)oc2cc(N(CCOCCOCc3cccc(C(=O)/C=C(\O)C(=O)O)c3)S(C)(=O)=O)c(C3CC3)cc12 and CNC(=O)c1c(-c2ccc(F)cc2)oc2cc(N(CCOCCCOCc3cccc(C(=O)/C=C(\O)C(=O)O)c3)S(C)(=O)=O)c(C3CC3)cc12 cannot be ordered by EC50: under 100 nM for the first, under 100 nM for the second.

Compared with CNC(=O)c1c(-c2ccc(F)cc2)oc2cc(N(CCOC(=O)CNC(=O)CCCC(=O)O)S(C)(=O)=O)c(C3CC3)cc12, CNC(=O)c1c(-c2ccc(F)cc2)oc2cc(N(CCOCCCc3cccc(C(=O)/C=C(\O)C(=O)O)c3)S(C)(=O)=O)c(C3CC3)cc12 is lower in EC50: 100 to 1000 nM for the first, under 100 nM for the second.

First: CNC(=O)c1c(-c2ccc(F)cc2)oc2cc(N(CCOCCOCCOCCO)S(C)(=O)=O)c(C3CC3)cc12
Second: CNC(=O)c1c(-c2ccc(F)cc2)oc2cc(N(CCOCCOCc3ccccc3C(=O)O)S(C)(=O)=O)c(C3CC3)cc12
The EC50 of the first is higher: 100 to 1000 nM for the first, under 100 nM for the second.

First: CNC(=O)c1c(-c2ccc(F)cc2)oc2cc(N(CCOCCOCCOCCOCCOCCOCc3cccc(C(=O)/C=C(\O)C(=O)O)c3)S(C)(=O)=O)c(C3CC3)cc12
Second: CNC(=O)c1c(-c2ccc(F)cc2)oc2cc(N(CCOCCOCc3ccc(C(=O)/C=C(\O)C(=O)O)cc3)S(C)(=O)=O)c(C3CC3)cc12
The EC50 of the first is higher: 100 to 1000 nM for the first, under 100 nM for the second. The second is the more potent here.

CNC(=O)c1c(-c2ccc(F)cc2)oc2cc(N(CCCCCOCc3ccc(C(=O)O)cc3)S(C)(=O)=O)c(C3CC3)cc12 and CNC(=O)c1c(-c2ccc(F)cc2)oc2cc(N(CCCCOCCc3ccc(C(=O)O)cc3)S(C)(=O)=O)c(C3CC3)cc12 cannot be ordered by EC50: under 100 nM for the first, under 100 nM for the second.

CNC(=O)c1c(-c2ccc(F)cc2)oc2cc(N(CC(=O)NC(C)(C)C(=O)NCc3cccc(C(=O)/C=C(\O)C(=O)O)c3)S(C)(=O)=O)c(C3CC3)cc12 and CNC(=O)c1c(-c2ccc(F)cc2)oc2cc(N(CC(=O)NC3(C(=O)NCc4cccc(C(=O)/C=C(\O)C(=O)O)c4)CCCC3)S(C)(=O)=O)c(C3CC3)cc12 fall in the same range of EC50: 100 to 1000 nM for the first, 100 to 1000 nM for the second.

First: CNC(=O)c1c(-c2ccc(F)cc2)oc2cc(N(CCCCCCCc3ccc(C(=O)O)cc3)S(C)(=O)=O)c(C3CC3)cc12
Second: CNC(=O)c1c(-c2ccc(F)cc2)oc2cc(N(CCOCCOCc3ccc(C(=O)O)cc3)S(C)(=O)=O)c(C3CC3)cc12
The EC50 of the first is lower: under 100 nM for the first, 100 to 1000 nM for the second.
